From ChEMBL document CHEMBL6092212, “Discovery of novel substituted (Z)-N'-hydroxy-3-(3-phenylureido)benzimidamide derivatives as multifunctional molecules targeting pathological hallmarks of Alzheimer's disease” (Eur J Med Chem, 2024)
pIC50: −log10 of the molar value. Activity calls are given as the source filed them. No cut-off for these calls is given here.

How the values were obtained:
[1] = molecular target: T1, Acetylcholinesterase (Homo sapiens, UniProt P22303); assay: Inhibition of AChE (unknown origin)
T1 sequence (P22303 whole entry): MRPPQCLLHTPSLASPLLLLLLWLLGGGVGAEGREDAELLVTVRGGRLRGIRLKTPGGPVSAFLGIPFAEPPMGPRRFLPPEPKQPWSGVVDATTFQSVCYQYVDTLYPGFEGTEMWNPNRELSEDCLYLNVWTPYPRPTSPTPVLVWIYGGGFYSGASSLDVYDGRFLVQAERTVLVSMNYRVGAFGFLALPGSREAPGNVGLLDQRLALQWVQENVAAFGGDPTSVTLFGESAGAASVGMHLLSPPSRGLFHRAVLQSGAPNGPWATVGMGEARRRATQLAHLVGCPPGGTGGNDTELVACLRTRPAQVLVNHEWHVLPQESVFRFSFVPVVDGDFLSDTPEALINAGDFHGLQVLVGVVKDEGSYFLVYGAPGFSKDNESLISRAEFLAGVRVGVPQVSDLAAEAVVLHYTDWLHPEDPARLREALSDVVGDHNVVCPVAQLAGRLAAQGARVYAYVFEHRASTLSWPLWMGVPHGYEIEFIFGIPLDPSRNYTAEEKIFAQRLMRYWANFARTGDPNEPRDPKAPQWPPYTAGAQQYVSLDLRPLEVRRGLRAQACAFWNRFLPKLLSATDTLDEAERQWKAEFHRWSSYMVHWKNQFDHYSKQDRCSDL

[2] = molecular target: T2, Cholinesterase (Homo sapiens, UniProt P06276); assay: Inhibition of BChE (unknown origin)
T2 sequence (P06276 whole entry): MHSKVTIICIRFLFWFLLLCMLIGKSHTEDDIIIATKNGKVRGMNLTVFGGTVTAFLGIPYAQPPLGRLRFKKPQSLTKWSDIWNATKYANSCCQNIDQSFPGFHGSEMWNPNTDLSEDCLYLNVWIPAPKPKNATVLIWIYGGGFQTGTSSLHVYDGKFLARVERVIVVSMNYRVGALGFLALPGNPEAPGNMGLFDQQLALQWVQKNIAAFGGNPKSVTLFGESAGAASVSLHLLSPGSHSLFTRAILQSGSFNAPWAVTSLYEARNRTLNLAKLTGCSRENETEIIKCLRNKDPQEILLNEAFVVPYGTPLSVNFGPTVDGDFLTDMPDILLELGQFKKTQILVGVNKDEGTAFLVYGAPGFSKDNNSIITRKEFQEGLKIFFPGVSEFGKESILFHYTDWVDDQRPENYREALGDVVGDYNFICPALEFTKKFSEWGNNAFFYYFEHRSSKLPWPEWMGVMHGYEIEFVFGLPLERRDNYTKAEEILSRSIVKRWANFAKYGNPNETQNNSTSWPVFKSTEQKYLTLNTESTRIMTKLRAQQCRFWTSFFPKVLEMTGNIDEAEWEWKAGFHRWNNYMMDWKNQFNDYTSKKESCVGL

[3] = Metal chelating activity assessed as compound-Fe3+ complex formation at 600 uM incubated for 24 hrs by UV spectrophotometry
[4] = molecular target: Microtubule-associated protein tau (Homo sapiens) (UniProt P10636); assay: Inhibition of Tau (unknown origin) aggregation at 1.125 uM incubated for 3 days by ThT assay; conditions: time 3.0 day
Microtubule-associated protein tau (Homo sapiens), sequence (P10636 whole entry): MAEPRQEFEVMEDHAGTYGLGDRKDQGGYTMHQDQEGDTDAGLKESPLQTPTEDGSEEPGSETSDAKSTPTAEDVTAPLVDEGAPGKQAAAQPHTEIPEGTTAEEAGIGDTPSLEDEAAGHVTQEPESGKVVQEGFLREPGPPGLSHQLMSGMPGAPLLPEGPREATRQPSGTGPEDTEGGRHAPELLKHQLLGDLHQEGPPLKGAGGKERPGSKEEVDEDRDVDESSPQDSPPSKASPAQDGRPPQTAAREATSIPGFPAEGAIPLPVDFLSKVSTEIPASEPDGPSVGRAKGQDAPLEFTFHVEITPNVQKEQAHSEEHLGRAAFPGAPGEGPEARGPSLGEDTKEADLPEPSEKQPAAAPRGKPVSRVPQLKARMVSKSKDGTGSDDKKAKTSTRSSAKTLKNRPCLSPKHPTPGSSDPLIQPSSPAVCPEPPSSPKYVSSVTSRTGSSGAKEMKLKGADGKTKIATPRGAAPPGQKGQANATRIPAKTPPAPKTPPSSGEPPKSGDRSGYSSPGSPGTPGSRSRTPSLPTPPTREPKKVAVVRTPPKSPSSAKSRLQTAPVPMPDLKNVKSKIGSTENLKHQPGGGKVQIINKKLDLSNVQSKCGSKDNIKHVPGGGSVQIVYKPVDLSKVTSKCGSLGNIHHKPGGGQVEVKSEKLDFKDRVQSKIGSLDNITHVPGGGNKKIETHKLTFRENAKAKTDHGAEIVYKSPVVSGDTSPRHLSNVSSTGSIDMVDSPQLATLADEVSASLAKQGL

[5] = molecular target: Amyloid-beta precursor protein (Homo sapiens) (UniProt P05067); assay: Inhibition of self-mediated Amyloid beta (1 to 42)(unknown origin) aggregation at 3.125 uM incubated for 3 days by ThT assay; conditions: time 3.0 day
Amyloid-beta precursor protein (Homo sapiens), sequence (P05067 whole entry): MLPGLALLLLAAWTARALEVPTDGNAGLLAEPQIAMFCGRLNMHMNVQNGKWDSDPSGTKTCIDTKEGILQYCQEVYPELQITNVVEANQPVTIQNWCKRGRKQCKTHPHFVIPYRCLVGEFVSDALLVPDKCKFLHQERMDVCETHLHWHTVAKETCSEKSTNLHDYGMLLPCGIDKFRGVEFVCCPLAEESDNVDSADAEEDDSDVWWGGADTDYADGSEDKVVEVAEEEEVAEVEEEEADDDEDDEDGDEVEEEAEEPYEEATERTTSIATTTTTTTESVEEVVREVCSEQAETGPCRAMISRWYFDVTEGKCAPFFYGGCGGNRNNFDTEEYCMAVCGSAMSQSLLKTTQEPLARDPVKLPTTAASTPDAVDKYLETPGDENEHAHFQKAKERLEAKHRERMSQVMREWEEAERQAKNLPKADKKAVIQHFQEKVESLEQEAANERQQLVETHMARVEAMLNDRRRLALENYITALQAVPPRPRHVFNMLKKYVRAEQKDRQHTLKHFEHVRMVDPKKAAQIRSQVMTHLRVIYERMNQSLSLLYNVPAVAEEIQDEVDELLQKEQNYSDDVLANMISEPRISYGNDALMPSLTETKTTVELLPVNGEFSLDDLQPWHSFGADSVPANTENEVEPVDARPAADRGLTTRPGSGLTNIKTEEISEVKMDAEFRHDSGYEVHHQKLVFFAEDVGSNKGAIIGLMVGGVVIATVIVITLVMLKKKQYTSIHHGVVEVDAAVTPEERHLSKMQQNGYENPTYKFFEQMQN

[6] = molecular target: T1, Acetylcholinesterase; assay: Inhibition of human AChE using ATCI as substrate preincubated for 30 mins followed by substrate addition measured after 30 mins by Ellman's method
[7] = system: HMC3; assay: Inhibition of LPS/ATP-induced cytotoxicity against human HMC3 cells at 12.5 uM incubated for 24 hrs by MTT assay; type: functional, cell-based
[8] = system: PC-12; assay: Cytotoxicity against rat PC-12 cells upto 20 uM incubated for 24 hrs by MTT assay; type: toxicity, cell-based; conditions: pc-12, 24 h
[9] = Induction of NO release upto 100 uM incubated for 5 to 10 mins by Griess assay; type: functional; conditions: time 5-10 min
[10] = system: HMC3; assay: Inhibition of mitochondrial impairment in LPS/ATP-induced human HMC3 cells at 12.5 uM incubated for 24 hrs by Rhodamine 123/JC-1 staining based analysis; type: functional, cell-based
[11] = system: HMC3; assay: Inhibition of ROS production in LPS/ATP-induced human HMC3 cells at 12.5 uM incubated for 24 hrs by MitoSOX Red FM staining based analysis; type: functional, cell-based
[12] = system: HMC3; assay: Induction of mitochondrial membrane potential stability in LPS/ATP-induced human HMC3 cells at 12.5 uM incubated for 24 hrs by Rhodamine 123/JC-1 staining based analysis; type: functional, cell-based
[13] = molecular target: Cholinesterase (Equus caballus, UniProt P81908); assay: Inhibition of equine BChE using BTCI as substrate preincubated for 30 mins followed by substrate addition measured after 30 mins by Ellman's method
Cholinesterase (Equus caballus, UniProt P81908), sequence (P81908 whole entry): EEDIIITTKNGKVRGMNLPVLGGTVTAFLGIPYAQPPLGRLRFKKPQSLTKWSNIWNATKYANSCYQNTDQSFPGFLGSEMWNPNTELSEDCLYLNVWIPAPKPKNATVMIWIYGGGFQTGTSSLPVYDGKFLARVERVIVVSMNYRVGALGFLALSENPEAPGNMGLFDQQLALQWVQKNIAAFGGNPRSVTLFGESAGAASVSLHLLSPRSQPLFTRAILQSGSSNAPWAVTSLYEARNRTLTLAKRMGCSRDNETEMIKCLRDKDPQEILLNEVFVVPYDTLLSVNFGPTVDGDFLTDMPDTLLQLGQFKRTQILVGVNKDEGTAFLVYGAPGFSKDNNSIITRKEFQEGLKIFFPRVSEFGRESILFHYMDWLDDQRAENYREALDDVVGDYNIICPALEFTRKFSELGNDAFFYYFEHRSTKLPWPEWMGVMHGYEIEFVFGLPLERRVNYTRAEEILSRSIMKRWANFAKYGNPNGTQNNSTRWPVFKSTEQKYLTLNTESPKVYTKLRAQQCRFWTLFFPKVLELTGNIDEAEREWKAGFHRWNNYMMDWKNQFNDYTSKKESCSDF

[14] = molecular target: T2, Cholinesterase; assay: Inhibition of human BChE using BTCI as substrate preincubated for 30 mins followed by substrate addition measured after 30 mins by Ellman's method
[15] = molecular target: T1, Acetylcholinesterase; assay: Mixed inhibition of human AChE using ATCI as substrate at 0.1 to 5 uM preincubated for 30 mins followed by substrate addition by Ellman's method; conditions: dose 0.1-5 µM
[16] = molecular target: Cholinesterase (Equus caballus) (UniProt P81908); assay: Competitive inhibition of equine BChE using BTCI as substrate at 1 to 10 uM preincubated for 30 mins followed by substrate addition by Ellman's method; conditions: dose 1-10 µM
Cholinesterase (Equus caballus), sequence (P81908 whole entry): as above

[17] = Antioxidant activity assessed as DPPH radical scavenging activity at 20 to 200 uM incubated for 30 mins by absorbance based analysis relative to control; type: functional; conditions: dose 20-200 µM
[18] = Antioxidant activity assessed as inhibition of DPPH radical scavenging activity incubated for 30 mins by absorbance based analysis; type: functional
[19] = system: HMC3; assay: Antiinflammatory activity against LPS/ATP-induced human HMC3 cells assessed as reduction in NF-kappaB level at 12.5 uM by immunocytochemistry based analysis; type: functional, cell-based
[20] = system: HMC3; assay: Antiinflammatory activity against LPS/ATP-induced human HMC3 cells assessed as reduction in NLRP3 level at 12.5 uM by immunocytochemistry based analysis; type: functional, cell-based
[21] = system: HMC3; assay: Antiinflammatory activity against LPS/ATP-induced human HMC3 cells assessed as reduction in nuclear translocation of NF-kappaB at 12.5 uM by immunocytochemistry based analysis; type: functional, cell-based
[22] = system: HMC3; assay: Antiinflammatory activity against LPS/ATP-induced human HMC3 cells assessed as increase in vimentin level at 12.5 uM by immunocytochemistry based analysis; type: functional, cell-based
[23] = system: HMC3; assay: Antiinflammatory activity against LPS/ATP-induced human HMC3 cells assessed as reduction in NLRP3 level at 12.5 uM by Western blot analysis; type: functional, cell-based
[24] = system: HMC3; assay: Antiinflammatory activity against LPS/ATP-induced human HMC3 cells assessed as reduction in caspase-1 level at 12.5 uM by Western blot analysis; type: functional, cell-based
[25] = system: HMC3; assay: Antiinflammatory activity against LPS/ATP-induced human HMC3 cells assessed as reduction in IL-1beta level at 12.5 uM by Western blot analysis; type: functional, cell-based
[26] = system: HMC3; assay: Antiinflammatory activity against LPS/ATP-induced human HMC3 cells assessed as reduction in IL-18 level at 12.5 uM by Western blot analysis; type: functional, cell-based
[27] = system: HMC3; assay: Antiinflammatory activity against LPS/ATP-induced human HMC3 cells assessed as increase in Nrf2 level at 12.5 uM by Western blot analysis; type: functional, cell-based
[28] = system: HMC3; assay: Antiinflammatory activity against LPS/ATP-induced human HMC3 cells assessed as decrease in Iba-1 level at 12.5 uM by Western blot analysis; type: functional, cell-based
[29] = Permeability of compound in PBS at pH 7.4 at 500 uM by PAMPA; type: ADME; conditions: read-out: permeability
[30] = Acute toxicity in Swiss albino mouse assessed as animal survival at 2000 mg/kg, po measured 14 days post-administration; type: organism-based; conditions: in vivo, 336 h, time 14 day
[31] = Acute toxicity in Swiss albino mouse assessed as signs of over-weight gain at 2000 mg/kg, po measured 14 days post-administration; type: organism-based; conditions: in vivo, 336 h, time 14 day
[32] = Acute toxicity in Swiss albino mouse assessed as signs of abnormal behaviour at 2000 mg/kg, po measured 14 days post-administration; type: organism-based; conditions: in vivo, 336 h, time 14 day
[33] = Acute toxicity in Swiss albino mouse assessed as signs of convulsion at 2000 mg/kg, po measured 14 days post-administration; type: organism-based; conditions: in vivo, 336 h, time 14 day
[34] = Acute toxicity in Swiss albino mouse assessed as signs of tremor at 2000 mg/kg, po measured 14 days post-administration; type: organism-based; conditions: in vivo, 336 h, time 14 day
[35] = Acute toxicity in Swiss albino mouse assessed as signs of diarrhea at 2000 mg/kg, po measured 14 days post-administration; type: organism-based; conditions: in vivo, 336 h, time 14 day
[36] = system: Mus musculus; assay: Neuroprotective activity against scopolamine-induced cognitive deficit Swiss albino mouse model assessed as increase in BDNF mRNA level at 10 mg/kg, ip measured after 14 days by RT-PCR analysis; type: functional, organism-based; conditions: time 14.0 day
[37] = system: Mus musculus; assay: Reversal of scopolamine-induced cognitive deficit Swiss albino mouse model assessed as decrease in escape latency at 10 mg/kg, ip measured for 5 days by Morris water maze test; type: functional, organism-based; conditions: time 5.0 day
[38] = system: Mus musculus; assay: Reversal of scopolamine-induced cognitive deficit Swiss albino mouse model assessed as increase in time in platform quadrant at 10 mg/kg, ip measured after 5 days by Morris water maze test; type: functional, organism-based; conditions: time 5.0 day
[39] = system: Mus musculus; assay: Reversal of scopolamine-induced cognitive deficit Swiss albino mouse model assessed as reduction in distance traveled to reach platform at 10 mg/kg, ip measured after 5 days by Morris water maze test; type: functional, organism-based; conditions: time 5.0 day
[40] = system: Mus musculus; assay: Reversal of scopolamine-induced cognitive deficit Swiss albino mouse model assessed as increase in number of entries in target quadrant at 10 mg/kg, ip measured after 5 days by Morris water maze test; type: functional, organism-based; conditions: time 5.0 day
[41] = system: Mus musculus; assay: Protection against scopolamine-associated dementia in Swiss albino mouse model assessed as increase in latency period at 10 mg/kg, ip measured after 14 days by Passive avoidance task method; type: functional, organism-based; conditions: time 14.0 day
[42] = system: Mus musculus; assay: Neuroprotective activity against scopolamine-induced cognitive deficit Swiss albino mouse model assessed as increase in TRKB mRNA level at 10 mg/kg, ip measured after 14 days by RT-PCR analysis; type: functional, organism-based; conditions: time 14.0 day
[43] = system: Mus musculus; assay: Neuroprotective activity against scopolamine-induced cognitive deficit Swiss albino mouse model assessed as increase in CREB1 mRNA level at 10 mg/kg, ip measured after 14 days by RT-PCR analysis; type: functional, organism-based; conditions: time 14.0 day
[44] = system: Mus musculus; assay: Neuroprotective activity against scopolamine-induced cognitive deficit Swiss albino mouse model assessed as increase in Nr4a2 mRNA level at 10 mg/kg, ip measured after 14 days by RT-PCR analysis; type: functional, organism-based; conditions: time 14.0 day
[45] = system: Mus musculus; assay: Neuroprotective activity against scopolamine-induced cognitive deficit Swiss albino mouse model assessed as increase in c-FOS mRNA level at 10 mg/kg, ip measured after 14 days by RT-PCR analysis; type: functional, organism-based; conditions: time 14.0 day
[46] = system: Mus musculus; assay: Neuroprotective activity against scopolamine-induced cognitive deficit Swiss albino mouse model assessed as increase in PKA mRNA level at 10 mg/kg, ip measured after 14 days by RT-PCR analysis; type: functional, organism-based; conditions: time 14.0 day
[47] = system: Mus musculus; assay: Neuroprotective activity against scopolamine-induced cognitive deficit Swiss albino mouse model assessed as increase in PSD95 mRNA level at 10 mg/kg, ip measured after 14 days by RT-PCR analysis; type: functional, organism-based; conditions: time 14.0 day
[48] = system: Mus musculus; assay: Neuroprotective activity against scopolamine-induced cognitive deficit Swiss albino mouse model assessed as increase in GAP43 mRNA level at 10 mg/kg, ip measured after 14 days by RT-PCR analysis; type: functional, organism-based; conditions: time 14.0 day
[49] = system: Mus musculus; assay: Reversal of scopolamine-induced cognitive deficit Swiss albino mouse model assessed as decrease in escape latency at 1.5 mg/kg, ip measured for 5 days by Morris water maze test; type: functional, organism-based; conditions: time 5.0 day
[50] = system: Mus musculus; assay: Reversal of scopolamine-induced cognitive deficit Swiss albino mouse model assessed as increase in time in platform quadrant at 1.5 mg/kg, ip measured after 5 days by Morris water maze test; type: functional, organism-based; conditions: time 5.0 day
[51] = system: Mus musculus; assay: Protection against scopolamine-associated dementia in Swiss albino mouse model assessed as increase in latency period at 1.5 mg/kg, ip measured after 14 days by Passive avoidance task method; type: functional, organism-based; conditions: time 14.0 day
[52] = system: Mus musculus; assay: Neuroprotective activity against scopolamine-induced cognitive deficit Swiss albino mouse model assessed as increase in BDNF mRNA level at 1.5 mg/kg, ip measured after 14 days by RT-PCR analysis; type: functional, organism-based; conditions: time 14.0 day
[53] = system: Mus musculus; assay: Neuroprotective activity against scopolamine-induced cognitive deficit Swiss albino mouse model assessed as increase in TRKB mRNA level at 1.5 mg/kg, ip measured after 14 days by RT-PCR analysis; type: functional, organism-based; conditions: time 14.0 day

COc1cc(/C=C/C(=O)NCC(=O)NCCc2c[nH]c3ccccc23)ccc1O
pIC50 [1]: 6.02
pIC50 [2]: 5.91

COc1ccc2[nH]cc(CCNC(=O)Nc3cccc(/C(N)=N/O)c3)c2c1
Activity [3]: inactive
inhibition [4]: Active
inhibition [5]: Active
pIC50 [6]: 6.04
inhibition [7]: Active
Activity [8]: Non-toxic
Activity [9]: inactive
inhibition [10]: Active
inhibition [11]: Active
Activity [12]: Active
pIC50 [13]: 5.92
pIC50 [14]: 6.00
inhibition [15]: Active
inhibition [16]: Active
Activity [17]: 47.3%
pIC50 [18]: 4.82
Activity [19]: Active
Activity [20]: Active
Activity [21]: Active
Activity [22]: Active
Activity [23]: Active
Activity [24]: Active
Activity [25]: Active
Activity [26]: Active
Activity [27]: Active
Activity [28]: Active
Papp at 500 µM [29]: 12.3 ×10⁻⁶ cm/s
Activity [30]: Non-toxic
Activity [31]: Non-toxic
Activity [32]: Non-toxic
Activity [33]: Non-toxic
Activity [34]: Non-toxic
Activity [35]: Non-toxic
Activity [36]: Active
Activity [37]: Active
Activity [38]: Active
Activity [39]: Active
Activity [40]: Active
Activity [41]: Active
Activity [42]: Active
Activity [43]: Active
Activity [44]: Active
Activity [45]: Active
Activity [46]: Active
Activity [47]: Active
Activity [48]: Active

CCN(C)C(=O)Oc1cccc([C@H](C)N(C)C)c1
Activity [17]: 4.73%
Activity [49]: Active
Activity [50]: Active
Activity [51]: Active
Activity [52]: Active
Activity [53]: Active

N/C(=N\O)c1cccc(NC(=O)Nc2cccc(F)c2)c1
Activity [3]: inactive
inhibition [4]: Active
inhibition [5]: Active
pIC50 [6]: 5.76
inhibition [7]: Active
Activity [8]: Non-toxic
Activity [9]: inactive
inhibition [10]: Active
inhibition [11]: Active
Activity [12]: Active
pIC50 [13]: 5.17
pIC50 [14]: 5.28
inhibition [15]: Active
inhibition [16]: Active
Activity [17]: 46.1%
pIC50 [18]: 4.79
Activity [19]: Active
Activity [20]: Active
Activity [21]: Active
Activity [22]: Active
Activity [23]: Active
Activity [24]: Active
Activity [25]: Active
Activity [26]: Active
Activity [27]: Active
Activity [28]: Active
Papp at 500 µM [29]: 10.7 ×10⁻⁶ cm/s
Activity [30]: Non-toxic
Activity [31]: Non-toxic
Activity [32]: Non-toxic
Activity [33]: Non-toxic
Activity [34]: Non-toxic
Activity [35]: Non-toxic
Activity [36]: Active
Activity [37]: Active
Activity [38]: Active
Activity [39]: Active
Activity [40]: Active
Activity [41]: Active
Activity [42]: Active
Activity [43]: Active
Activity [44]: Active
Activity [45]: Active
Activity [46]: Active
Activity [47]: Active
Activity [48]: Active
